Paper PMC9964242 (Vaccines, 2023)
Values after ≈ are worked out from the molar mass of the structure shown. Values joined by “and” are separate entries in the source; they are usually repeats but may differ in a detail not shown here. Equal entries are not always repeated. Where two headings read alike, the source gives them in different places.

Key:
[1] = tested on: influenza A/Egypt/NRC098/2019(H1N1)
in vitro = settings: dog
[2] = tested on: influenza A/Egypt/NRC098/2019(H1N1); assay: microbe, parasite or virus in culture; settings: H1N1, MDCK
MDCK cells [3] = tested on: MDCK cells
[4] = tested on: influenza A/chicken/Egypt/N12640A/2016 (H5N1); assay: microbe, parasite or virus in culture; format: cell-based, influenza A/H5N1 virus; settings: for IC50: Influenza A virus, H5N1, MDCK, read-out: IC50 (half-maximal inhibitory concentration)
[5] = tested on: seasonal influenza A/H1N1 virus; format: cell-based
[6] = tested on: seasonal influenza A/H1N1 virus; format: cell-based; settings: for Viral inhibition / inactivation of viral infectivity through direct viricidal action: 10–100 µg/mL
[7] = tested on: seasonal influenza A/H1N1 virus; format: cell-based; remark: listed apart in the source
Zika virus = settings: cited from earlier work
A/ShanTou/169/06 (H1N1) = settings: cited from earlier work
MDCK cells [8] = settings: cited from earlier work
[9] = read-out: IC50 (half-maximal inhibitory concentration)

SMILES	SI (selectivity index = CC50/IC50) [1]	CC50 (in vitro) [µg/mL]	IC50 [2, 9] [µg/mL]	CC50 (half-maximal cytotoxic concentration) (MDCK cells [3]; dog) [µg/mL]	IC50 relative to CC50 (in words) [1]	Antiviral activity against A/H1N1 (in words) [1]	further results
OC[C@@H](O)[C@@H](O)[C@H](O)[C@@H](O)CO [D-sorbitol]	>3.215	> 10000	3110 (≈ 17100 µM)	–	–	–	–
COc1cc(C=O)ccc1O [Vanillin]	–	242 (≈ 1590 µM)	–	242 (≈ 1590 µM)	IC50 > CC50	–	–
CC[C@H](CC[C@@H](C)[C@H]1CC[C@H]2[C@@H]3CC=C4C[C@@H](O[C@@H]5O[C@H](CO)[C@@H](O)[C@H](O)[C@H]5O)CC[C@]4(C)[C@H]3CC[C@]12C)C(C)C [β-sitosterol-O-glucoside]	2434	1750 (≈ 3030 µM)	0.719 (≈ 1.25 µM)	1750 (≈ 3030 µM)	–	–	IC50 [4]: 0.613 µg/mL (≈ 1.06 µM); Plaque reduction %, Viral Replication [5]: 28.7% and 37.7% and 52.8%; Plaque reduction %, Viricidal [6]: 83.6% and 93.3% and 97.1%; Viral inhibition / inactivation of viral infectivity through direct viricidal action [6]: up to 90%; Plaque reduction %, Viral Adsorption [7]: 35.8% and 48.3% and 56.9%
C[C@]12CC[C@@H]3c4ccc(O)cc4CC[C@H]3[C@@H]1CC[C@@H]2O [Estradiol, estradiol, reference compound]	–	> 5000	–	–	–	–	IC50 [2]: 7.1 µg/mL (≈ 26.1 µM)
Cc1cc(O)c2c(c1)C(=O)c1cccc(O)c1C2=O [Chrysophanic acid]	–	46.1 (≈ 181 µM)	–	46.1 (≈ 181 µM)	IC50 > CC50	–	–
C[C@@H]1CC[C@@]2(OC1)O[C@H]1[C@@H](O)[C@H]3[C@@H]4CC[C@H]5C[C@@H](O[C@@H]6O[C@H](CO)[C@H](O[C@@H]7O[C@H](CO)[C@@H](O)[C@H](O[C@@H]8OC[C@@H](O)[C@H](O)[C@H]8O)[C@H]7O[C@@H]7O[C@H](CO)[C@H](O)[C@H](O[C@@H]8O[C@H](CO)[C@@H](O)[C@H](O)[C@H]8O)[C@H]7O)[C@H](O)[C@H]6O)[C@H](O)C[C@]5(C)[C@H]4CC[C@]3(C)[C@H]1[C@@H]2C [Digitonin]	20.56	442 (≈ 360 µM)	21.5 (≈ 17.5 µM)	442 (≈ 360 µM)	–	moderate antiviral activity	IC50 (Zika virus): 7.91 µM; IC50 [2]: 21.6 µg/mL (≈ 17.5 µM)
C=C(C)[C@@H]1CC[C@]2(C)CC[C@]3(C)[C@H](CC[C@@H]4[C@@]5(C)CC[C@H](O)C(C)(C)[C@@H]5CC[C@]43C)[C@@H]12 [Lupeol]	5.98	560 (≈ 1310 µM)	93.6 (≈ 219 µM)	560 (≈ 1310 µM)	–	–	IC50 [2]: 93.7 µg/mL (≈ 220 µM)
CC[C@H](CC[C@@H](C)[C@H]1CC[C@H]2[C@@H]3CC=C4C[C@@H](O)CC[C@]4(C)[C@H]3CC[C@]12C)C(C)C [β-sitosterol]	10,154	9900 (≈ 23900 µM)	0.975 (≈ 2.35 µM)	9900 (≈ 23900 µM)	–	–	IC50 [4]: 0.295 µg/mL (≈ 0.711 µM); Plaque reduction %, Viral Replication [5]: 31.8% and 41.2% and 52.9%; Plaque reduction %, Viricidal [6]: 84% and 98.5% and 99%; Viral inhibition / inactivation of viral infectivity through direct viricidal action [6]: up to 90%; Plaque reduction %, Viral Adsorption [7]: 28% and 37.5% and 52.5%
O=C(O)/C=C/c1ccccc1O [O-Coumaric acid]	–	9170 (≈ 55900 µM)	–	9172 (≈ 55900 µM)	IC50 > CC50	–	–
O=c1cc(-c2ccccc2)oc2cc(O)ccc12 [7-Hydroxy flavone]	16.194	5830 (≈ 24500 µM)	360 (≈ 1510 µM)	5830 (≈ 24500 µM)	–	poor antiviral activity	–
O=C[C@H](O)[C@@H](O)[C@H](O)[C@H](O)C(=O)O [D-Glucuronic acid, Glucuronic acid]	–	10300 (≈ 52800 µM)	–	10260 (≈ 52800 µM)	IC50 > CC50	–	–
C[C@@H]1O[C@@H](Oc2cc(O)c3c(=O)c(O[C@@H]4O[C@@H](C)[C@H](O)[C@@H](O)[C@H]4O)c(-c4ccc(O)cc4)oc3c2)[C@H](O)[C@H](O)[C@H]1O [Kaempferitrin]	>209.20	> 10000	47.8 (≈ 82.6 µM)	–	–	moderate antiviral activity	–
C[C@@H]1O[C@@H](O[C@H]2[C@H](Oc3cc(O)c4c(c3)O[C@H](c3ccc(O)cc3)CC4=O)O[C@H](CO)[C@@H](O)[C@@H]2O)[C@H](O)[C@H](O)[C@H]1O [Naringin]	>485.43	> 10000	20.6 (≈ 35.5 µM)	–	–	moderate antiviral activity	IC50 [2]: 20.7 µg/mL (≈ 35.6 µM)
O=C1CC(c2ccccc2)Oc2ccccc21 (centres unmarked) [Flavanone]	–	–	–	–	IC50 > CC50	–	CC50 (half-maximal cytotoxic concentration) (MDCK cells [3]): 450 µg/mL (≈ 2010 µM)
O=C1c2cccc(O)c2C(=O)c2c(O)cc(CO)cc21 [Aloe emodin]	3.127	2280 (≈ 8440 µM)	729 (≈ 2700 µM)	2280 (≈ 8440 µM)	–	–	–
O=C[C@H](O)[C@@H](O)[C@@H](O)[C@H](O)C(=O)O [D-Galacturonic acid, Galacturonic acid]	–	9610 (≈ 49500 µM)	–	9610 (≈ 49500 µM)	IC50 > CC50	–	–
CC(=O)N[C@H]1[C@H]([C@H](O)[C@H](O)CO)OC(C(=O)O)=C[C@@H]1N=C(N)N [Zanamivir, reference compound]	>12,626	> 10000	0.792 (≈ 2.38 µM)	–	–	–	SI (selectivity index = CC50/IC50) [4]: >37,736; IC50 [4]: 0.265 µg/mL (≈ 0.797 µM)
O=c1c(O[C@@H]2O[C@H](CO)[C@@H](O)[C@H](O)[C@H]2O)c(-c2ccc(O)c(O)c2)oc2cc(O)cc(O)c12 [Isoquercitrin]	4.25	710 (≈ 1530 µM)	167 (≈ 360 µM)	710 (≈ 1530 µM)	–	poor antiviral potential	–
O=C1C[C@@H](c2ccccc2)Oc2cc(O)cc(O)c21 [Pinocembrin]	–	> 10000	> 10000	–	–	poor anti-H1N1 activity	–
COc1cc(C2Oc3cc([C@H]4Oc5cc(O)cc(O)c5C(=O)[C@@H]4O)ccc3OC2CO)ccc1O (some centres unmarked) [Silybin]	–	9480 (≈ 19700 µM)	–	9480 (≈ 19700 µM)	IC50 > CC50	poor anti-influenza potential	EC50 (A/ShanTou/169/06 (H1N1)): 70.8 ± 8.11 µM; CC50 (MDCK cells [8]): > 400 µM
OC[C@H]1O[C@@H](Oc2ccc(O)cc2)[C@H](O)[C@@H](O)[C@@H]1O [Arbutin]	>13.09	> 10000	764 (≈ 2810 µM)	–	–	–	–
